Test results from PubChem BioAssay (NCI).
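Compound exposure: 48 hours, 5 concentrations, 96-well plates. TGI marks complete inhibition of growth.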

Assays:
Assay in all cases: NCI-60 cell line screen, 48 h
786-0 renal = tested on: 786-0 renal
A549 NSCLC = tested on: A549 NSCLC
ACHN renal = tested on: ACHN renal
CAKI-1 renal = tested on: CAKI-1 renal
CCRF-CEM leukemia = tested on: CCRF-CEM leukemia
COLO 205 colon = tested on: COLO 205 colon
DMS 114 small cell lung = tested on: DMS 114 small cell lung
DMS 273 small cell lung = tested on: DMS 273 small cell lung
HCT-116 colon = tested on: HCT-116 colon
HCT-15 colon = tested on: HCT-15 colon
HL-60(TB) leukemia = tested on: HL-60(TB) leukemia
HOP-18 NSCLC = tested on: HOP-18 NSCLC
HOP-62 NSCLC = tested on: HOP-62 NSCLC
HOP-92 NSCLC = tested on: HOP-92 NSCLC
HT29 colon = tested on: HT29 colon
IGROV1 ovarian = tested on: IGROV1 ovarian
K-562 leukemia = tested on: K-562 leukemia
KM12 colon = tested on: KM12 colon
KM20L2 colon = tested on: KM20L2 colon
LOX IMVI melanoma = tested on: LOX IMVI melanoma
LXFL 529 NSCLC = tested on: LXFL 529 NSCLC
M14 melanoma = tested on: M14 melanoma
M19-MEL melanoma = tested on: M19-MEL melanoma
MALME-3M melanoma = tested on: MALME-3M melanoma
MOLT-4 leukemia = tested on: MOLT-4 leukemia
NCI-H226 lung = tested on: NCI-H226 lung
NCI-H23 lung = tested on: NCI-H23 lung
NCI-H460 lung = tested on: NCI-H460 lung
NCI-H522 lung = tested on: NCI-H522 lung
OVCAR-3 ovarian = tested on: OVCAR-3 ovarian
OVCAR-4 ovarian = tested on: OVCAR-4 ovarian
OVCAR-5 ovarian = tested on: OVCAR-5 ovarian
OVCAR-8 ovarian = tested on: OVCAR-8 ovarian
RPMI-8226 leukemia = tested on: RPMI-8226 leukemia
RXF 393 renal = tested on: RXF 393 renal
SF-268 CNS = tested on: SF-268 CNS
SF-295 CNS = tested on: SF-295 CNS
SF-539 CNS = tested on: SF-539 CNS
SK-MEL-2 melanoma = tested on: SK-MEL-2 melanoma
SK-MEL-28 melanoma = tested on: SK-MEL-28 melanoma
SK-MEL-5 melanoma = tested on: SK-MEL-5 melanoma
SK-OV-3 ovarian = tested on: SK-OV-3 ovarian
SN12C renal = tested on: SN12C renal
SR leukemia = tested on: SR leukemia
SW-620 colon = tested on: SW-620 colon
TK-10 renal = tested on: TK-10 renal
U251 CNS = tested on: U251 CNS
UACC-257 melanoma = tested on: UACC-257 melanoma
UACC-62 melanoma = tested on: UACC-62 melanoma
UO-31 renal = tested on: UO-31 renal
DLD-1 colon = tested on: DLD-1 colon
EKVX NSCLC = tested on: EKVX NSCLC
HCC-2998 colon = tested on: HCC-2998 colon
SNB-19 CNS = tested on: SNB-19 CNS
SNB-75 CNS = tested on: SNB-75 CNS
SNB-78 CNS = tested on: SNB-78 CNS

## N#CC(NNC(=O)c1ccccc1O)c1ccc(O)cc1 (configuration not stated)
786-0 renal
  TGI: > 100 µM
A549 NSCLC
  TGI: > 100 µM
ACHN renal
  TGI: > 100 µM
CAKI-1 renal
  TGI: 98.9 µM
CCRF-CEM leukemia
  TGI: > 100 µM
COLO 205 colon
  TGI: > 100 µM
DMS 114 small cell lung
  TGI: 8.62 µM
DMS 273 small cell lung
  TGI: > 100 µM
HCT-116 colon
  TGI: > 100 µM
HCT-15 colon
  TGI: > 100 µM
HL-60(TB) leukemia
  TGI: 74.9 µM
HOP-18 NSCLC
  TGI: > 100 µM
HOP-62 NSCLC
  TGI: > 100 µM
HOP-92 NSCLC
  TGI: > 100 µM
HT29 colon
  TGI: > 100 µM
IGROV1 ovarian
  TGI: > 100 µM
K-562 leukemia
  TGI: > 100 µM
KM12 colon
  TGI: > 100 µM
KM20L2 colon
  TGI: > 100 µM
LOX IMVI melanoma
  TGI: > 100 µM
LXFL 529 NSCLC
  TGI: > 100 µM
M14 melanoma
  TGI: > 100 µM
M19-MEL melanoma
  TGI: > 100 µM
MALME-3M melanoma
  TGI: > 100 µM
MOLT-4 leukemia
  TGI: > 100 µM
NCI-H226 lung
  TGI: 55.1 µM
NCI-H23 lung
  TGI: > 100 µM
NCI-H460 lung
  TGI: > 100 µM
NCI-H522 lung
  TGI: > 100 µM
OVCAR-3 ovarian
  TGI: 74 µM
OVCAR-4 ovarian
  TGI: > 100 µM
OVCAR-5 ovarian
  TGI: > 100 µM
OVCAR-8 ovarian
  TGI: > 100 µM
RPMI-8226 leukemia
  TGI: > 100 µM
RXF 393 renal
  TGI: 12.2 µM
SF-268 CNS
  TGI: > 100 µM
SF-295 CNS
  TGI: > 100 µM
SF-539 CNS
  TGI: > 100 µM
SK-MEL-2 melanoma
  TGI: 78.5 µM
SK-MEL-28 melanoma
  TGI: > 100 µM
SK-MEL-5 melanoma
  TGI: > 100 µM
SK-OV-3 ovarian
  TGI: > 100 µM
SN12C renal
  TGI: > 100 µM
SR leukemia
  TGI: > 100 µM
SW-620 colon
  TGI: > 100 µM
TK-10 renal
  TGI: > 100 µM
U251 CNS
  TGI: > 100 µM
UACC-257 melanoma
  TGI: > 100 µM
UACC-62 melanoma
  TGI: 5.97 µM
UO-31 renal
  TGI: 11.9 µM

## [N-]=[N+]=NC(c1cn(C2CC(O)C(CO)O2)c(=O)[nH]c1=O)C(Br)I (configuration not stated)
786-0 renal
  TGI: > 100 µM
A549 NSCLC
  TGI: > 100 µM
ACHN renal
  TGI: > 100 µM
CAKI-1 renal
  TGI: > 100 µM
CCRF-CEM leukemia
  TGI: > 100 µM
COLO 205 colon
  TGI: > 100 µM
DLD-1 colon
  TGI: > 100 µM
DMS 114 small cell lung
  TGI: > 100 µM
DMS 273 small cell lung
  TGI: > 100 µM
EKVX NSCLC
  TGI: > 100 µM
HCC-2998 colon
  TGI: > 100 µM
HCT-116 colon
  TGI: > 100 µM
HCT-15 colon
  TGI: > 100 µM
HL-60(TB) leukemia
  TGI: > 100 µM
HOP-62 NSCLC
  TGI: > 100 µM
HOP-92 NSCLC
  TGI: > 100 µM
HT29 colon
  TGI: > 100 µM
IGROV1 ovarian
  TGI: > 100 µM
K-562 leukemia
  TGI: > 100 µM
KM12 colon
  TGI: > 100 µM
KM20L2 colon
  TGI: > 100 µM
LOX IMVI melanoma
  TGI: > 100 µM
LXFL 529 NSCLC
  TGI: > 100 µM
M14 melanoma
  TGI: > 100 µM
M19-MEL melanoma
  TGI: > 100 µM
MALME-3M melanoma
  TGI: > 100 µM
MOLT-4 leukemia
  TGI: > 100 µM
NCI-H226 lung
  TGI: > 100 µM
NCI-H23 lung
  TGI: > 100 µM
NCI-H460 lung
  TGI: > 100 µM
NCI-H522 lung
  TGI: > 100 µM
OVCAR-3 ovarian
  TGI: > 100 µM
OVCAR-5 ovarian
  TGI: > 100 µM
OVCAR-8 ovarian
  TGI: > 100 µM
RPMI-8226 leukemia
  TGI: > 100 µM
RXF 393 renal
  TGI: > 100 µM
SF-295 CNS
  TGI: > 100 µM
SF-539 CNS
  TGI: > 100 µM
SK-MEL-2 melanoma
  TGI: > 100 µM
SK-MEL-28 melanoma
  TGI: > 100 µM
SK-MEL-5 melanoma
  TGI: > 100 µM
SK-OV-3 ovarian
  TGI: > 100 µM
SN12C renal
  TGI: > 100 µM
SNB-19 CNS
  TGI: > 100 µM
SNB-75 CNS
  TGI: > 100 µM
SNB-78 CNS
  TGI: > 100 µM
SR leukemia
  TGI: > 100 µM
SW-620 colon
  TGI: > 100 µM
TK-10 renal
  TGI: > 100 µM
U251 CNS
  TGI: > 100 µM
UACC-62 melanoma
  TGI: > 100 µM
UO-31 renal
  TGI: > 100 µM
